33 molecules from ChEMBL document CHEMBL1150369, “Conformation-opioid activity relationships of bicyclic guanidines from 3D similarity analysis” (Bioorg Med Chem, 2008) can be followed below.

As usually defined, the IC50 is the concentration at which inhibition is half-maximal.

In the first assay the target is Kappa-type opioid receptor (Cavia porcellus, UniProt P41144). Description: Displacement of [3H]U69593 from kappa opioid receptor in guinea pig brain homogenate. The format is tissue-based. A general note: Displacement assays read how much labelled ligand stays bound in the presence of the test substance.
Sequence of Kappa-type opioid receptor (P41144 whole entry): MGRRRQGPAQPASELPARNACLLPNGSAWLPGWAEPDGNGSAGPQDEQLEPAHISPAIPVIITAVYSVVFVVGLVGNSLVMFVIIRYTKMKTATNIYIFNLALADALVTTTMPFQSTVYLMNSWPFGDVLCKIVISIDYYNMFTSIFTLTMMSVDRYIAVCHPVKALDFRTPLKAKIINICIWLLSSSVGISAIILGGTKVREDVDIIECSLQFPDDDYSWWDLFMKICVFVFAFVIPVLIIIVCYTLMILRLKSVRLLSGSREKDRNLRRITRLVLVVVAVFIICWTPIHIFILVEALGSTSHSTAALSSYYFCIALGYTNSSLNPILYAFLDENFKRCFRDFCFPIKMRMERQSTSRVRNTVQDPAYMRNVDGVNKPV
Turning to `COc1ccc(C[C@H]2CN3C(=NC[C@@H]3C(C)C)N2CC2CCCC2)cc1`, the half-maximal inhibitory concentration (IC50) is greater than 10 µM.

Molecule `COc1ccc(C[C@H]2CN3C(=NC[C@@H]3C)N2CCC23CC4CC(CC(C4)C2)C3)cc1` came in with an IC50 of 1.53 µM.

`CCC[C@H]1CN=C2N(CC3CCC3)[C@@H](Cc3ccc(OC)cc3)CN21` showed an IC50 greater than 10 µM.

For the molecule `C[C@H]1CN=C2N(CCC34CC5CC(CC(C5)C3)C4)[C@@H](C3CCCCC3)CN21`, the IC50 turned out to be 1.94 µM.

As to `CCC[C@H]1CN=C2N(CC3CCC3)[C@H](Cc3ccc(OC)cc3)CN21`, the IC50 was greater than 10 µM.

`CC(C)C[C@@H]1CN2C(=NC[C@@H]2C2CCCCC2)N1CCC12CC3CC(CC(C3)C1)C2` returned an IC50 of 1.21 µM.

Take `COc1ccc(C[C@H]2CN3C(=NC[C@H]3CC3CCCCC3)N2CC2CCCC2)cc1`: the IC50 was greater than 10 µM.

In turn, `C1CCC([C@H]2CN3C(=NC[C@@H]3C3CCCCC3)N2CCC23CC4CC(CC(C4)C2)C3)CC1` gave an IC50 of 1.49 µM.

As to `CC(C)C[C@@H]1CN2C(=NC[C@@H]2C)N1CCC1CC2CCC1C2` (stereo not given in full), the concentration for half-maximal inhibition (IC50) was determined as 2.31 µM.

In turn, `CC(C)C[C@H]1CN2C(=NC[C@@H]2C)N1CCCC1CCCCC1` showed a 50% inhibitory concentration (IC50) greater than 10 µM.

`C[C@H]1CN2C(=NC[C@@H]2C)N1CCC12CC3CC(CC(C3)C1)C2` registered an IC50 greater than 10 µM.

On to `COc1ccc(C[C@@H]2CN3C(=NC[C@H]3C3CCCCC3)N2CCC23CC4CC(CC(C4)C2)C3)cc1`, for which the IC50 is greater than 10 µM.

As for `CCOc1ccc(C[C@@H]2CN3C(=NC[C@@H]3CC)N2CCC2CC3CCC2C3)cc1` (stereo not given in full), the IC50 was 0.321 µM.

Molecule `COc1ccc(C[C@@H]2CN3C(=NC[C@@H]3C3CCCCC3)N2CCC23CC4CC(CC(C4)C2)C3)cc1` yielded an IC50 greater than 10 µM.

Molecule `CC(C)C[C@@H]1CN2C(=NC[C@@H]2C)N1CCC12CC3CC(CC(C3)C1)C2` showed an IC50 of 3.64 µM.

`CCOc1ccc(C[C@@H]2CN3C(=NC[C@@H]3C)N2CCC23CC4CC(CC(C4)C2)C3)cc1` showed an IC50 of 0.151 µM.

As for `CC(C)C[C@@H]1CN2C(=NC[C@H]2C2CCCCC2)N1CCCC1CCCCC1`, the IC50 is 1.77 µM.

`CC(C)C[C@@H]1CN2C(=NC[C@@H]2C)N1CCCC1CCCCC1` yielded an IC50 of 5.44 µM.

The molecule `CC(C)C[C@@H]1CN2C(=NC[C@H]2C2CCCCC2)N1CCC12CC3CC(CC(C3)C1)C2` showed an IC50 of 1.75 µM.

In turn, `COc1ccc(C[C@H]2CN3C(=NC[C@@H]3C3CCCCC3)N2CCC23CC4CC(CC(C4)C2)C3)cc1` showed an IC50 of 4.92 µM.

Consider `CC(C)[C@H]1CN2C(=NC[C@@H]2C)N1CCCCC1CCCCC1`, for which the IC50 is greater than 10 µM.

For the molecule `COc1ccc(C[C@@H]2CN3C(=NC[C@H]3CC3CCCCC3)N2CCC23CC4CC(CC(C4)C2)C3)cc1`, the IC50 amounted to 0.457 µM.

The molecule `C1CCC([C@H]2CN3C(=NC[C@H]3C3CCCCC3)N2CCC23CC4CC(CC(C4)C2)C3)CC1` displayed an IC50 greater than 10 µM.

In the case of `CC(C)C[C@@H]1CN2C(=NC[C@H]2C2CCCCC2)N1CC1CCC(C)CC1` (stereo not given in full), the IC50 came out at 0.738 µM.

Turning to `CCCC[C@@H]1CN=C2N(CCC3CC4CCC3C4)[C@H](Cc3ccc(OC)cc3)CN21` (stereo not given in full), the IC50 was determined as 0.43 µM.

On to `C1CCC([C@H]2CN3C(=NC[C@H]3C3CCCCC3)N2CCC2CC3CCC2C3)CC1` (stereo not given in full), for which the IC50 stood at 0.524 µM.

For `CCOc1ccc(C[C@@H]2CN3C(=NC[C@@H]3C)N2CCC2CC3CCC2C3)cc1` (stereo not given in full), the IC50 was 0.185 µM.

`CC(C)C[C@@H]1CN2C(=NC[C@@H]2C2CCCCC2)N1CC1CCC(C)CC1` (stereo not given in full) displayed an IC50 of 0.999 µM.

Turning to `CC(C)C[C@@H]1CN2C(=NC[C@@H]2C2CCCCC2)N1CCCC1CCCCC1`, the IC50 was 3.74 µM.

`C1CCC([C@H]2CN3C(=NC[C@@H]3C3CCCCC3)N2CCC2CC3CCC2C3)CC1` (stereo not given in full) gave an IC50 of 0.56 µM.

Regarding `CC1CCC(CN2C3=NC[C@H](C)N3C[C@@H]2C2CCCCC2)CC1` (stereo not given in full), the IC50 was 5.06 µM.

For another assay, the target named is Mu-type opioid receptor (Homo sapiens, UniProt P35372). Kind of assay: Binding affinity at mu opioid receptor.
Sequence of Mu-type opioid receptor (P35372 whole entry): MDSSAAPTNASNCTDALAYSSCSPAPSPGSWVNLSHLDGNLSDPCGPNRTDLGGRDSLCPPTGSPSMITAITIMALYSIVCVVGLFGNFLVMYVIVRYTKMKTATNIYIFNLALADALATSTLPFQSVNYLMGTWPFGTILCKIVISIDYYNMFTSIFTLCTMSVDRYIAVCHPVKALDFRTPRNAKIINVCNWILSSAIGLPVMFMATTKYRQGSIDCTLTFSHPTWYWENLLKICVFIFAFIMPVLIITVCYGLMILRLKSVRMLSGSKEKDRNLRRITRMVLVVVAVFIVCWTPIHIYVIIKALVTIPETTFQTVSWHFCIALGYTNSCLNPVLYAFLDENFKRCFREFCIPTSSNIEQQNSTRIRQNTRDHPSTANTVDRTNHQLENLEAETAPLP
Take `COc1ccc(C[C@@H]2CN3C(=NC[C@@H]3C)N2CCC2CC3CCC2C3)cc1` (stereo not given in full): the IC50 was 20.3 µM.

The molecule `COc1ccc(C[C@H]2CN3C(=NC[C@@H]3C)N2CCCC2CCCCC2)cc1` displayed an IC50 of 0.421 µM.

The target in another assay is Delta-type opioid receptor (Homo sapiens, UniProt P41143). Description: Binding affinity at delta opioid receptor.
Sequence of Delta-type opioid receptor (P41143 whole entry): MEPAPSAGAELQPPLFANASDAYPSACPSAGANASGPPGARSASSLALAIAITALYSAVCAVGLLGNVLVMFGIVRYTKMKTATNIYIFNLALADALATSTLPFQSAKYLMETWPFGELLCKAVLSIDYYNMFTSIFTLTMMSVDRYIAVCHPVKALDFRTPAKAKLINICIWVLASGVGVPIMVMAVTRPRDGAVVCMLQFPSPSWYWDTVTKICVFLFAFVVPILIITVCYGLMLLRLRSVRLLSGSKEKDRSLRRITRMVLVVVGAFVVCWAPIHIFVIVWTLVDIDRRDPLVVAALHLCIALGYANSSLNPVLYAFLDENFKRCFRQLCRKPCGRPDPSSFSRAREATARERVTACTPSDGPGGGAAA
On to `COc1ccc(C[C@@H]2CN3C(=NC[C@@H]3C)N2CCC2CC3CCC2C3)cc1` (stereo not given in full), for which the IC50 came out at 2.07 µM.

Take `COc1ccc(C[C@H]2CN3C(=NC[C@@H]3C)N2CCCC2CCCCC2)cc1`: the IC50 was found to be 5.46 µM.
